What was measured:
[1] = target: human GABAA α5β2γ1 receptor (Homo sapiens (Human), UniProt P31644+Q8N1C3); experiment: Radioligand binding assay, competition for [3H]RO7239181, γ1-containing GABAA subtypes; settings: Table 1; [3H]RO7239181 displacement, membranes from HEK293F cells, mean of two determinations
[2] = target: human GABAA α1β3γ2 receptor (Homo sapiens (Human), UniProt P14867+P18507); experiment: Radioligand binding assay, competition for [3H]Flumazenil, γ2-containing GABAA subtypes; settings: Table 1; [3H]Flumazenil displacement, HEK293F cells, mean of two determinations; read-out: Ki h-GABAA α1β3γ2
Procedure, shortened: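 Transiently transfected HEK293F cells expressing human α1β3γ2 receptors, prepared in Mannitol Buffer pH 7.2-7.4, competed for [3H]Flumazenil (81.1 Ci/mmol) binding. Incubation ran to equilibrium for 1 hour at 4 °C, followed by filtration and scintillation counting. Ki values are means of two determinations.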

[3] = target: human GABAA α2β2γ1 receptor (Homo sapiens (Human), UniProt P47869+Q8N1C3); experiment: Radioligand binding assay, competition for [3H]RO7239181, γ1-containing GABAA subtypes; settings: for Ki: [3H]RO7239181 displacement

What does the source list for `Cc1nnc2n1-c1cnc(Cl)c(Cl)c1C(c1c(F)cccc1F)=N[C@H]2C` [Example 1, (7S)-11,12-dichloro-9-(2,6-difluorophenyl)-3,7-dimethyl-2,4,5,8,13-pentazatricyclo[8.4.0.02,6]tetradeca-1(10),3,5,8,11,13-hexaene]?
Ki [1]: 2.4 nM; Ki [2]: 1090 nM; Ki ([3]; Ki h-GABAA α2β2γ1, Table 1, membranes from HEK293F cells, mean of two determinations): 31.7 nM; Ki ([3]; Ki h-GABAA α2β2γ1, Table 2): 31.7 nM; γ2/γ1 Selectivity Ratio ([3]; Table 1, Ki α1β3γ2 (nM)/Ki α2β2γ1 (nM)): 34; LogSel ([3]; Table 1, Log of the γ2/γ1 Ki ratio): 1.53
